# Results from ChEMBL document CHEMBL1201862, “PubChem BioAssay data set” (2004).
# The source made the active and inactive calls.
# Key:
# [1] = Luminescence Cell-Based Dose Confirmation HTS to Identify Inhibitors of Polyadenylation.; assay type: functional
# Vero = Vero cell cytotoxicity, cytotoxicity control for flavivirus capping enzyme inhibitors (AID 588742); assay type: functional; settings: Chlorocebus sabaeus
# Genome polyprotein = Genome polyprotein (dengue virus type 2, UniProt P29990); experiment: Dengue-2 NS5 methyltransferase inhibitors, primary screen, biochemical, confirmation dose response (AID 588689); assay type: functional
# [2] = biological target: T1, Corticotropin-releasing factor receptor 2/Corticotropin-releasing factor-binding protein (Homo sapiens, UniProt P24387+Q13324); experiment: Dose Response confirmation of uHTS hits for small molecule antagonists of the CRF-binding protein and CRF-R2 receptor complex.; assay type: functional; settings: read-out: IC50_Mean
# T1 sequence (Q13324 whole entry): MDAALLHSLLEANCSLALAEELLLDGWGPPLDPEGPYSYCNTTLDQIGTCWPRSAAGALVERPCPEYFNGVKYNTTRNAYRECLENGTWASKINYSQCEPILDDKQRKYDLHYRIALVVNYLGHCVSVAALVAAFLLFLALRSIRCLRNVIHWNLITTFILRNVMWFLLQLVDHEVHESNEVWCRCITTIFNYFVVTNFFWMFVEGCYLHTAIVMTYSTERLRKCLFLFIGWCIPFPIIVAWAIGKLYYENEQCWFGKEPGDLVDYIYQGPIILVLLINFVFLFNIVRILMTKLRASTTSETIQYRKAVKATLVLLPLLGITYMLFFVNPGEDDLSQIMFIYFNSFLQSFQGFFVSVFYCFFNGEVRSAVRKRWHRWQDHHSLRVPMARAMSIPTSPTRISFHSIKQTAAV
# T1 sequence (P24387 whole entry): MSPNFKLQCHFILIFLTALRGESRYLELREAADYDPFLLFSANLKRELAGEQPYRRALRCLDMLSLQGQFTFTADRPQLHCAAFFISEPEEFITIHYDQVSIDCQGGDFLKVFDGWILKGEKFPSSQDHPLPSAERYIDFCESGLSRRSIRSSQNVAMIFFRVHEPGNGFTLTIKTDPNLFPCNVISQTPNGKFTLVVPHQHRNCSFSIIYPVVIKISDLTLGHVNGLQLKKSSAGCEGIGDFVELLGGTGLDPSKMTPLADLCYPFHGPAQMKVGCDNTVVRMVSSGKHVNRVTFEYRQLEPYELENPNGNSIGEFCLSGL
# [3] = biological target: T1, Corticotropin-releasing factor receptor 2/Corticotropin-releasing factor-binding protein; experiment: activators of CRF receptor 2 with binding protein – uHTS hits, confirmation (AID 602473); assay type: functional; settings: read-out: EC50_Mean
# [4] = CRF-BP/CRF-R2 complex antagonists, dose response, cell-based, uHTS hits, 384-well (AID 651639); assay type: functional, Homo sapiens; settings: read-out: IC50_Mean
# [5] = inhibitors of firefly luciferase expression or activity, dose response, H4 neuroglioma cells, luminescence (AID 1990); assay type: functional, cell-based
# [6] = Luminescence Cell-Based Dose Response HTS to Identify Inhibitors of 5'UTR Stem-Loop Driven Prion Protein mRNA Translation in H4 Neuroglioblastoma Cells. [Related pubchem assays: 1827 (Project Summary), 1813 (Primary HTS)]; assay type: functional
# [7] = inhibitors of SNCA 5'UTR-driven reporter translation, confirmation, H4 neuroglioma cells, luminescence (AID 1988); assay type: functional, cell-based
# [8] = Luminescence-based counterscreen assay for KLF5 inhibitors: dose response cell-based high throughput screening assay to identify cytotoxic compounds using the IEC-6 intestinal epithelial cell line. [Related pubchem assays: 1700 (Primary screen.), 1834 (Confirmation screen.), 1858 (Summary AID.), 1905 (Counterscreen.)]; assay type: functional
# [9] = biological target: T2, Microphthalmia-associated transcription factor (Homo sapiens, UniProt O75030); experiment: TRPM1 promoter luciferase signal decrease, dose response, MITF inhibitor project, cell-based, SK-MEL-5, cherry-picked, set 3 (AID 493073); assay type: functional
# T2 sequence (O75030 whole entry): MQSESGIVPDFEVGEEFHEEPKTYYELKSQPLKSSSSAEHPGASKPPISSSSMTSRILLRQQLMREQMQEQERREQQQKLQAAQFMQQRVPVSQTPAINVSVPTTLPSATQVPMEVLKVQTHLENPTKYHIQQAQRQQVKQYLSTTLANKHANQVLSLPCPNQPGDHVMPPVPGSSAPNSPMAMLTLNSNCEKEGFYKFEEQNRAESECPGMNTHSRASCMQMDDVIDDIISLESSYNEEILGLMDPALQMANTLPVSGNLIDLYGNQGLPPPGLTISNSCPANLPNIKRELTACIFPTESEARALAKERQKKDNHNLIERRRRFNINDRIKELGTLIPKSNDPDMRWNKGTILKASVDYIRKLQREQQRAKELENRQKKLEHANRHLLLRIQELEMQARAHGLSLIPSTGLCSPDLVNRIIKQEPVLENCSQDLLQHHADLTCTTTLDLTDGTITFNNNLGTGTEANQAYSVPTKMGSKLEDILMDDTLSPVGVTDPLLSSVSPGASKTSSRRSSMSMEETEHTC
# [10] = cytotoxicity in HEK-293T cells, dose response, cytotoxicity control for BCR NF-kB inhibitor project, luminescence, B-cell screen hits (AID 489021); assay type: functional, cell-based;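 also: HEK-293T cells carrying an NF-kB luciferase reporter; cells exposed to compound for about 14 hours before viability readout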
# Jurkat = experiment: SAR Analysis of small molecule inhibitors of […] specific antigen receptor-induced NF-kB activation in a Jurkat cell line using a luminescence assay - Set 3. [Related pubchem assays (depositor defined):AID435022, AID435025, AID465]; assay type: functional, cell-based; settings: Homo sapiens
# HEK293 [11] = experiment: SAR Analysis of small molecule inhibitors of B-cell specific antigen receptor-induced NF-kB activation in a HEK-293T cell line using a luminescence assay - Set 2. [Related pubchem assays (depositor defined):AID435022, AID435025, AID489021]; assay type: functional, cell-based; settings: Homo sapiens
# HEK293 [12] = experiment: cytotoxicity in HEK293T NF-kB-Luc cells, SAR follow-up, cytotoxicity control for NF-kB activator project, cell-based, resazurin fluorescence (AID 493251); assay type: functional; settings: Homo sapiens
# A-375 [13] = experiment: MITF: Counter assay: A375 proliferation Measured in Cell-Based System Using Plate Reader - 2084-03_Inhibitor_Dose_DryPowder_Activity. [Related pubchem assays (depositor defined):AID488944]; assay type: functional; settings: Homo sapiens
# A-375 [14] = experiment: A375 melanoma cell viability reduction, dose response, counter-screen for MITF modulator project, cherry-pick samples, set 2 (AID 540335); assay type: functional, cell-based; settings: Homo sapiens
# [15] = inhibitors of HIV Env-driven cell fusion, dose response, cherry-pick (AID 652057); assay type: functional, cell-based
# [16] = ZM109 Env clade C HIV-1 fusion inhibitors, dose response, HeLa effector, CEM target cells, luciferase, cherry-pick (AID 652058); assay type: functional, cell-based
# [17] = inhibitors of clade B AD8 Env fusion, dose response, cell-based, cherry-pick (AID 652062); assay type: functional;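 also: luciferase signal from cell-cell fusion driven by HIV-1 clade B AD8 Env; potency is for inhibitors of fusion seen as a drop in luminescence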
# [18] = luciferase signal loss, tTA control fusion, HeLa F-luc tTA cells, dry powder, counter-screen for HIV Env fusion inhibitor project, dose response (AID 687021); assay type: functional, cell-based
# [19] = CEM21 cell cytotoxicity, dose response, cytotoxicity control, plate reader, dry powder (AID 687026); assay type: functional, cell-based
# [20] = inhibitors of intracellular T. cruzi replication, confirmation, NIH3T3 host cells, beta-gal luminescence (AID 2044); assay type: functional, cell-based;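 also: intracellular parasites grown in NIH/3T3 mouse fibroblasts as host cells; luminescent beta-galactosidase reporter signal from transgenic T. cruzi replicating inside host cells; inhibitors lower the luminescence signal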
# [21] = cytotoxicity toward NIH3T3 fibroblasts, dose response, counter-screen, cell-based, ATP luminescence, mouse fibroblasts (AID 2010); assay type: functional;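 also: cells exposed to compound for about 90 hours before reading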
# Cysteine protease ATG4B = Cysteine protease ATG4B (Homo sapiens, UniProt Q9Y4P1); assay type: functional;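 also: Fluorescence-based dose-response confirmation assay measuring inhibition of ATG4B activity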
# Phospholipase A2 = Phospholipase A2 (Homo sapiens, UniProt P04054); assay type: functional;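 also: confirmatory dose-response counterscreen on phospholipase A2, testing hits that came from an ultra-high-throughput screen for ATG4B inhibitors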
# [22] = biological target: 1-acylglycerol-3-phosphate O-acyltransferase ABHD5/Perilipin-5 (Homo sapiens, UniProt Q00G26+Q8WTS1); experiment: Luminescence-based biochemical high throughput dose response assay for inhibitors of the interaction of the lipase co-activator protein, abhydrolase domain containing 5 (ABHD5) with perilipin-5 (MLDP; PLIN5) (2K validation set). [Related pubchem assays (depositor defined):AID493035, AID493241]
# Perilipin-1/ABHD5 = Perilipin-1/ABHD5 (Homo sapiens, UniProt O60240+Q8WTS1); experiment: Luminescence-based biochemical high throughput dose response assay for inhibitors of the interaction of the lipase co-activator protein, abhydrolase domain containing 5 (ABHD5) with perilipin-1 (PLIN1) (2K validation set). [Related pubchem assays (depositor defined):AID493027, AID493057]
# [23] = biological target: Protein-arginine deiminase type-4 (Homo sapiens, UniProt Q9UM07); experiment: human PAD4 inhibitor potency, dose response, biochemical, fluorescence readout (AID 492970)
# [24] = biological target: T3, Replicative DNA helicase DnaB (Mycobacterium tuberculosis, UniProt P9WMR3); experiment: DnaB intein splicing inhibitors, dose response, biochemical, cell-free fluorescence (AID 449749); assay type: functional
# T3 sequence (P9WMR3 whole entry): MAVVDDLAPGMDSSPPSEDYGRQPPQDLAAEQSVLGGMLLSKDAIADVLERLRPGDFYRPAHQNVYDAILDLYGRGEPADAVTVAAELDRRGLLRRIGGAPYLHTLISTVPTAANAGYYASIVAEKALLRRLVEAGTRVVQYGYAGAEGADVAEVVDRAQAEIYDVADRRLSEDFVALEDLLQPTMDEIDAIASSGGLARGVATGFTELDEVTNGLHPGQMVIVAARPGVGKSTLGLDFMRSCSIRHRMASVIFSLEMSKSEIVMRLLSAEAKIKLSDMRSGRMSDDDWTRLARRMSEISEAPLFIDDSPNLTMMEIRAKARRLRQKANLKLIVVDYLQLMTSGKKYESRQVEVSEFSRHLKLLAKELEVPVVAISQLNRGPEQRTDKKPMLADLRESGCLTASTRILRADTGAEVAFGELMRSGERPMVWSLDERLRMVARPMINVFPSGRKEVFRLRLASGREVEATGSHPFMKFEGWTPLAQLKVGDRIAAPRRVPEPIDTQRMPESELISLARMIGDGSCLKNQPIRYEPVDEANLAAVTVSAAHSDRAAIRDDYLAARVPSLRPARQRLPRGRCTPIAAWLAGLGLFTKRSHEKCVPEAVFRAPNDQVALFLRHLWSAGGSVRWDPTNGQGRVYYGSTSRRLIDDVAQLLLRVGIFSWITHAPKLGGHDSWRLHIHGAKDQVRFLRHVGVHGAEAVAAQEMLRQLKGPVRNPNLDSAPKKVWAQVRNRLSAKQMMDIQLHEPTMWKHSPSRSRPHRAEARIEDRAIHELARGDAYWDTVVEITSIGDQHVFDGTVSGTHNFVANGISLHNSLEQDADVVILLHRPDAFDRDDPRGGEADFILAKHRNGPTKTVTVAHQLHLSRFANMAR
# Protein RecA = biological target: T4, Protein RecA (Mycobacterium tuberculosis, UniProt P9WHJ3); experiment: Fluorescence Cell-Free Homogeneous Dose Retest to Identify Inhibitors of RecA-Intein Splicing Activity. [Related pubchem assays (depositor defined):AID2097, AID2223, AID489010, AID492950]; assay type: functional
# T4 sequence (P9WHJ3 whole entry): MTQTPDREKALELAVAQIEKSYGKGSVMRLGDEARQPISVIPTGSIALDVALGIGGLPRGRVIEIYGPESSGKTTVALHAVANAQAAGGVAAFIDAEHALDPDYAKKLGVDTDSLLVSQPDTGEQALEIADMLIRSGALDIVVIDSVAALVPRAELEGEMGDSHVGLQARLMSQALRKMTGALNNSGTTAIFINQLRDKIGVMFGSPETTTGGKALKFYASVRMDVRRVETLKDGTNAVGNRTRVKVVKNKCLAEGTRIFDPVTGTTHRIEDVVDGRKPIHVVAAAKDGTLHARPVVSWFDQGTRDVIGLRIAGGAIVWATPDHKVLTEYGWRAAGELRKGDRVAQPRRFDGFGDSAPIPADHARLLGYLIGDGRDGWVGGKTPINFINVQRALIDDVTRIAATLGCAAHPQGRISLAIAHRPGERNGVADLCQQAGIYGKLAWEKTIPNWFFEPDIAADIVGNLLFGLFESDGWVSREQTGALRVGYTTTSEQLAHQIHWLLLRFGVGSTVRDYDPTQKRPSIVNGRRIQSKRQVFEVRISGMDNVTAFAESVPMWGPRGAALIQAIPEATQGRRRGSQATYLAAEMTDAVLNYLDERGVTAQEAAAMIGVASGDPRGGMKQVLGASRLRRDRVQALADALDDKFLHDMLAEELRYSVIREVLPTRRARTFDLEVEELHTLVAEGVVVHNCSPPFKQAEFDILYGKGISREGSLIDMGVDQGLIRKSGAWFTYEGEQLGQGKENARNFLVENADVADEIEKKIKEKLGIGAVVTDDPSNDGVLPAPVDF
# [25] = biological target: Voltage-gated inwardly rectifying potassium channel KCNH2 (Homo sapiens, UniProt Q12809); settings: Potency;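 also: confirmatory quantitative high-throughput screen measuring inhibition of hERG channel activity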
# Sequence of Voltage-gated inwardly rectifying potassium channel KCNH2 (Q12809 whole entry): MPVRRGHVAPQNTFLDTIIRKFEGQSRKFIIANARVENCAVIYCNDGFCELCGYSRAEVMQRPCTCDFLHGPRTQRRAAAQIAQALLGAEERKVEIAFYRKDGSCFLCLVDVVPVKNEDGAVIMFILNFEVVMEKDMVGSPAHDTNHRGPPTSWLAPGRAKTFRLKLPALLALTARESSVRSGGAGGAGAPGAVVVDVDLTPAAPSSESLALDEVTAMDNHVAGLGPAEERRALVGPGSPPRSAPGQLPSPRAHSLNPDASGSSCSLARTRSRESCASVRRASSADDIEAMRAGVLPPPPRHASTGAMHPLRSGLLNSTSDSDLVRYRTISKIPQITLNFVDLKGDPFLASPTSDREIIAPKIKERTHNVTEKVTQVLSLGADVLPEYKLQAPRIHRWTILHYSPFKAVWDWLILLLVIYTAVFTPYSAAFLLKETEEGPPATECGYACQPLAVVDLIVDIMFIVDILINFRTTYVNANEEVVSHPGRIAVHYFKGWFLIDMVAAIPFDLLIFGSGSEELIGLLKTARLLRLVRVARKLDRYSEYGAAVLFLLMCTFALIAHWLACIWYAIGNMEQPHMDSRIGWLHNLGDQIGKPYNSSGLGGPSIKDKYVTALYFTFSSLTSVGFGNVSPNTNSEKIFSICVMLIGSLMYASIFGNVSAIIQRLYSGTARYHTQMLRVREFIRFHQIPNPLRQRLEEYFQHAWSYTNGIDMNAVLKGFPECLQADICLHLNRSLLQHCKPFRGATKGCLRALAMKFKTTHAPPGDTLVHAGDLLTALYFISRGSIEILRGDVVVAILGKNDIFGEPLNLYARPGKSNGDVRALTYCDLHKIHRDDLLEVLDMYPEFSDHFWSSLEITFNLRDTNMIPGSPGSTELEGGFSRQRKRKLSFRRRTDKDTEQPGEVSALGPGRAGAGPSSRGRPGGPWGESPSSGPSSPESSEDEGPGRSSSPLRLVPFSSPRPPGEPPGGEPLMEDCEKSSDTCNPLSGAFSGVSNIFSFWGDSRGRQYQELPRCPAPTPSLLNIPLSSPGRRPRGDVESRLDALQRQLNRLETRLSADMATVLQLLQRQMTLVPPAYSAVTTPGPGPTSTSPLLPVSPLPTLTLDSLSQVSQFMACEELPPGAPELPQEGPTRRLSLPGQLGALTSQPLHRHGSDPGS
# Sequence of 1-acylglycerol-3-phosphate O-acyltransferase ABHD5/Perilipin-5 (Q00G26 whole entry, the tested form may be a part): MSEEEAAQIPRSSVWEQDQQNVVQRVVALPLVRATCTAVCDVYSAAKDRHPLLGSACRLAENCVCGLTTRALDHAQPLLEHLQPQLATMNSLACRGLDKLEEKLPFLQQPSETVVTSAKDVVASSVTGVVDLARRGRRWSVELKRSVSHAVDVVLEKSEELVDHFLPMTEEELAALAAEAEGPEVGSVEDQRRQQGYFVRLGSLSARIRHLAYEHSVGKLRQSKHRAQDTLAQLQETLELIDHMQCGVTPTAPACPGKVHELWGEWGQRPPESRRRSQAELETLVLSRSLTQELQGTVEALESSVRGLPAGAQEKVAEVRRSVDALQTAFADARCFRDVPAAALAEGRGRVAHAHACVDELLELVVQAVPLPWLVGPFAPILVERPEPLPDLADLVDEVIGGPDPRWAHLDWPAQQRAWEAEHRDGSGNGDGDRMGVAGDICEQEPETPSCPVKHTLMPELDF
# Sequence of 1-acylglycerol-3-phosphate O-acyltransferase ABHD5/Perilipin-5 (Q8WTS1 whole entry, the tested form may be a part): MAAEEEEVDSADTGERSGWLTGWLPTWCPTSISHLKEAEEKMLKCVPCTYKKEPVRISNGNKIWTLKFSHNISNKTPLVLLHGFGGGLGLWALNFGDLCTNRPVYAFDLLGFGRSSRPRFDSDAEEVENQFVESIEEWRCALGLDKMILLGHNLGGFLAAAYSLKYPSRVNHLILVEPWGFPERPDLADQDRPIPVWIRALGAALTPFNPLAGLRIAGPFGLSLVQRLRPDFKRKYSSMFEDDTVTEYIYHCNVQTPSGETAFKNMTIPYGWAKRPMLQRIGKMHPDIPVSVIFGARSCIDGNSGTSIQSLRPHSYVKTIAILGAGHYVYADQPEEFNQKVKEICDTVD
# Sequence of Phospholipase A2 (P04054 whole entry, the tested form may be a part): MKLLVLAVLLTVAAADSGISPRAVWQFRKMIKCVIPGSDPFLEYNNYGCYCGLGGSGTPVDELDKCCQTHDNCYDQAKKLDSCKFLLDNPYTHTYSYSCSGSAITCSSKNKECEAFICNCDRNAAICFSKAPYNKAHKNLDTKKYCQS
# Sequence of Protein-arginine deiminase type-4 (Q9UM07 whole entry): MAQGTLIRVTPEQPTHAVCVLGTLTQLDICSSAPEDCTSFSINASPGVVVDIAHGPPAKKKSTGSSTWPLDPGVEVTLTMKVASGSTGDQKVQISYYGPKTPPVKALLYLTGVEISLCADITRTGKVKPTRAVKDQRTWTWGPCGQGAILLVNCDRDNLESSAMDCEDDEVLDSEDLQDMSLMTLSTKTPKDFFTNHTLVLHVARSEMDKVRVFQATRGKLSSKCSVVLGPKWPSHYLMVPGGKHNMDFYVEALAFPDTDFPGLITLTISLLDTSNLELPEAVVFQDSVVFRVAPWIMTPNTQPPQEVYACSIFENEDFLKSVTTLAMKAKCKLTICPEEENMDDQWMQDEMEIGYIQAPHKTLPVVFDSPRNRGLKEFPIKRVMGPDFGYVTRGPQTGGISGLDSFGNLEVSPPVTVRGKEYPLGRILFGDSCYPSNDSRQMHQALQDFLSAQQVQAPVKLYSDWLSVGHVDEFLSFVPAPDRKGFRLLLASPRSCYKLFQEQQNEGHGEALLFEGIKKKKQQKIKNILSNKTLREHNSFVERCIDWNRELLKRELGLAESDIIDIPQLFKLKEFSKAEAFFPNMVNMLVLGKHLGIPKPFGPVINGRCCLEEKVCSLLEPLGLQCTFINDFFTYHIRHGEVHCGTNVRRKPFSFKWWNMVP
# Sequence of Genome polyprotein (P29990 2492-3391 limits assumed): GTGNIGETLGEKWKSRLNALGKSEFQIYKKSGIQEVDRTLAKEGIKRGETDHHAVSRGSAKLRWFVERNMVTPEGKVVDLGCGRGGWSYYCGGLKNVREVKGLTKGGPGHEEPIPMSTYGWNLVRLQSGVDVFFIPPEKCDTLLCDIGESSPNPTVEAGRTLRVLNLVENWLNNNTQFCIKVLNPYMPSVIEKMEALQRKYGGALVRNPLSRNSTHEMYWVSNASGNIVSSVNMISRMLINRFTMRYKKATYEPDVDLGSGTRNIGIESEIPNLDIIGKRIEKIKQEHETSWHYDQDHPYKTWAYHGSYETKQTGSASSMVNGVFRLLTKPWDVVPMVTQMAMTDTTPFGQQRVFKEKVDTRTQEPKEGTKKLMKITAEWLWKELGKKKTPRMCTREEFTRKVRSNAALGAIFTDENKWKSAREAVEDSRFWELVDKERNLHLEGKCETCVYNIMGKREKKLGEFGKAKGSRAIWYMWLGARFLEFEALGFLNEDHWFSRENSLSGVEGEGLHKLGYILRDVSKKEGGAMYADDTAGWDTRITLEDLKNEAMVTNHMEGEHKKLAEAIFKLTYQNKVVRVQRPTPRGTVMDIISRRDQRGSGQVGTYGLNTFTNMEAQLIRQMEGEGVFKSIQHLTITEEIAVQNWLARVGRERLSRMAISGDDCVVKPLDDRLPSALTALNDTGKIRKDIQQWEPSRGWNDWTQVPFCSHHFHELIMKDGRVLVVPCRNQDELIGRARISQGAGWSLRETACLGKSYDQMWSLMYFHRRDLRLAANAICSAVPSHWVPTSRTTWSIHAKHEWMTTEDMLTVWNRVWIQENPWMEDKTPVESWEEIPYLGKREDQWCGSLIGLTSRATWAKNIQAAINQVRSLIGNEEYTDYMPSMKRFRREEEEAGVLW
# Sequence of Cysteine protease ATG4B (Q9Y4P1 whole entry): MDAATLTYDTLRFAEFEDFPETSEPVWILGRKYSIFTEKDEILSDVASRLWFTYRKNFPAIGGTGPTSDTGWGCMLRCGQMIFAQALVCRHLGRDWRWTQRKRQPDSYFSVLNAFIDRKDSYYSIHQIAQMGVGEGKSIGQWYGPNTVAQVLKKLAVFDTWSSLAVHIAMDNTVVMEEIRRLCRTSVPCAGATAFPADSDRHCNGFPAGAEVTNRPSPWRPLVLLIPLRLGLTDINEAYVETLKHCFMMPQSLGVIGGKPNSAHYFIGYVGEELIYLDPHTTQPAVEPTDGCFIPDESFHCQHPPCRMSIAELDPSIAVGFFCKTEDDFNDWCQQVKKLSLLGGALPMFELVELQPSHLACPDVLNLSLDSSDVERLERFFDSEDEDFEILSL
# Sequence of Perilipin-1/ABHD5 (Q8WTS1 whole entry, the tested form may be a part): as the sequence (Q8WTS1 whole entry, the tested form may be a part) above
# Sequence of Perilipin-1/ABHD5 (O60240 whole entry, the tested form may be a part): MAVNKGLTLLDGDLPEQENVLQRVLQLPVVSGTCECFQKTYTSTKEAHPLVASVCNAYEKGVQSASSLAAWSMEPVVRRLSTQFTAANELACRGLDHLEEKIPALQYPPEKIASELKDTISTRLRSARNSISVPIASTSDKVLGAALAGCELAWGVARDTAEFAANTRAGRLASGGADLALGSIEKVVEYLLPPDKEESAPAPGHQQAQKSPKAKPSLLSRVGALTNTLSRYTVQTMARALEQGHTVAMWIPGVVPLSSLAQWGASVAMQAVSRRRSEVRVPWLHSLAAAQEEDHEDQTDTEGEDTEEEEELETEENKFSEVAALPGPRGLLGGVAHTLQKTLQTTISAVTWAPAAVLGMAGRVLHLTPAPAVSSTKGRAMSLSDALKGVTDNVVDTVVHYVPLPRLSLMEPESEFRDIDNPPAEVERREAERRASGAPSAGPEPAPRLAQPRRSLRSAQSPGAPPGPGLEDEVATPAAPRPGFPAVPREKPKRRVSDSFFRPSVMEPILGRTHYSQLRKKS
structure (smiles),measurement,setting,value
O=C1S/C(=C\c2ccc(O)c([N+](=O)[O-])c2)C(=O)N1c1ccccc1Cl,EC50,[1],> 120 µM (not active)
same,CC50,Vero,> 40 µM (active)
same,IC50,Genome polyprotein,40.6 µM (active)
same,IC50,[2],24.4 µM (active)
same,EC50,[3],> 53 µM (inactive)
same,IC50,[4],> 20 µM (inactive)
CC(C)(C)c1ccc(-c2noc(CCC(=O)NCC3CCCO3)n2)cc1 (configuration not stated),EC50,[5],< 100 nM (active)
same,EC50,[6],9.11 µM (active)
same,EC50,[7],152 nM (active)
same,IC50,[8],> 39.8 µM (not active)
same,AC50,[9],275 nM (active)
same,IC50,[10],> 80 µM (inactive)
same,IC50,Jurkat,13.4 µM (active)
same,IC50,HEK293 [11],1.54 µM (active)
same,IC50,HEK293 [12],70.9 µM (inactive)
same,AC50,A-375 [13],> 35 µM (active)
same,AC50,A-375 [14],> 35 µM (active)
same,AC50,[15],359 nM (active)
same,AC50,[16],293 nM (active)
same,AC50,[17],< 260 nM (active)
same,AC50,[18],67.1 µM (active)
same,AC50,[19],> 70 µM (inactive)
CC(C)C[C@H](NC(=O)OC(C)(C)C)C(=O)N/N=C/C1=Cc2ccccc2OC1C (some centres not stated),EC50,[20],3.34 µM (active)
same,EC50,[21],> 60 µM (not active)
same,IC50,Cysteine protease ATG4B,37.1 µM (inactive)
same,IC50,Phospholipase A2,15.4 µM (active)
Cc1ccc(S(=O)(=O)N[C@@H](Cc2ccccc2)C(=O)CCl)cc1 [TPCK],IC50,[22],1.9 µM (active)
same,IC50,Perilipin-1/ABHD5,1.87 µM (active)
same,IC50,[23],13 µM (inactive)
same,AC50,[24],2.03 µM (active)
same,EC50,Protein RecA,712 nM (active)
same,AC50,[25],12.6 µM (inconclusive)
